We go through 1 compound from patent publication US10925851B2 (Regents of the University of Minnesota, priority 2018, dated 2021).

Where “and” joins values, the source holds several entries; their conditions need not be identical. Equal values may be shown once. Read-outs that look alike come from different tables or passages of the source.

Series [1] has as its system mice. The series is described as follows: Combination therapy with morphine, isobolographic analysis in tail-flick assay. The settings on record: for Dose Reduction Index (DRI) Tosedostat: in combination with morphine; for ED50: Mus musculus, ip. For orientation: In hot-plate and tail-flick tests a longer latency is read as antinociception.
Series [2] can be described thus: Distribution of tosedostat in brain and plasma (LC-MS/MS). The conditions noted are these: 10 mg/Kg i.p., over 4 hours. Type of series: in vivo, mouse. The method, then: The subjects were intraperitoneally injected with ketamine-xylazine cocktail (100 mg/kg ketamine+10 mg/kg xylazine) 2 minutes prior to the time-point being analyzed. Specifically, samples were collected at 0.25, 0.5, 1, 2, and 4 hours after the drug administration. […] Samples were immediately centrifuged at 3000×rpm for 10 minutes at 4° C. and the separated top plasma layer was transferred into a new tube. Blood samples stored at −80° C. until LC-MS/MS analysis. For brain samples, brain tissue was extracted from the animal and washed with copious volumes of ice-cold D-PBS for removal of blood from the sample. and Collect brain and wash the brain with ice-cold DPBS properly to remove blood. The sample was then gently wiped with absorbent paper, weighed, and transferred into a 15 mL tube. The brain samples were homogenized by adding 1:5 (w/v) of ice-cold D-PBS into the tube and using mechanical homogenizer on them. Homogenized brain samples were also stored at −80° C.
LC-MS/MS analysis: Frozen plasma and brain homogenate samples were thawed and rapidly quenched as detailed here. For plasma samples, 30 μL of DMSO and 60 μL of acetonitrile containing 0.1% formic acid were added to 30 μL of each unknown thawed plasma sample. For brain homogenate samples, 10 μL of DMSO and 60 μL of acetonitrile containing 0.1% formic acid were added to 30 μL of each unknown sample. […]

In series [3] the test system is mice. The experiment in a line: Formalin test (persistent pain). Type of series: in vivo, mouse. The method, then:
The formalin test is another variant model for analyzing pain-relieving properties of test compounds in pain produced by inflammation or by injury to peripheral tissue. It is divergent from the acetic acid writhing assay in producing a biphasic response. These pharmacologically distinct phases are generally observed from 1 to 10 minutes, and 15 to 60 minutes post injection. While phase-I is caused by a rapid relay response in pain fibers, sensitization due to peripheral inflammation results in phase-II response in this model.
Mice were injected with 20 μl of 2% buffered formalin solution into the intraplantar region of hind paw of mice and the total time spent in licking and biting of the formalin-treated paw by the animals over the course of 30 min (phase I, acute pain behavior, 0-5 min; phase II, chronic pain behavior, 15-30 min) was recorded. Test compounds were injected 15 min prior to formalin administration. The pain response time (licking time) was recorded for every 5-min period during the 30-min recording for each mouse. The test compounds were dissolved in 50% saline in DMSO solution and delivered systemically

The target of a further series is T1, Aminopeptidase N (APN) (Homo sapiens, UniProt P15144).
T1 construct: purchased R&D Systems
T1 sequence (P15144 whole entry): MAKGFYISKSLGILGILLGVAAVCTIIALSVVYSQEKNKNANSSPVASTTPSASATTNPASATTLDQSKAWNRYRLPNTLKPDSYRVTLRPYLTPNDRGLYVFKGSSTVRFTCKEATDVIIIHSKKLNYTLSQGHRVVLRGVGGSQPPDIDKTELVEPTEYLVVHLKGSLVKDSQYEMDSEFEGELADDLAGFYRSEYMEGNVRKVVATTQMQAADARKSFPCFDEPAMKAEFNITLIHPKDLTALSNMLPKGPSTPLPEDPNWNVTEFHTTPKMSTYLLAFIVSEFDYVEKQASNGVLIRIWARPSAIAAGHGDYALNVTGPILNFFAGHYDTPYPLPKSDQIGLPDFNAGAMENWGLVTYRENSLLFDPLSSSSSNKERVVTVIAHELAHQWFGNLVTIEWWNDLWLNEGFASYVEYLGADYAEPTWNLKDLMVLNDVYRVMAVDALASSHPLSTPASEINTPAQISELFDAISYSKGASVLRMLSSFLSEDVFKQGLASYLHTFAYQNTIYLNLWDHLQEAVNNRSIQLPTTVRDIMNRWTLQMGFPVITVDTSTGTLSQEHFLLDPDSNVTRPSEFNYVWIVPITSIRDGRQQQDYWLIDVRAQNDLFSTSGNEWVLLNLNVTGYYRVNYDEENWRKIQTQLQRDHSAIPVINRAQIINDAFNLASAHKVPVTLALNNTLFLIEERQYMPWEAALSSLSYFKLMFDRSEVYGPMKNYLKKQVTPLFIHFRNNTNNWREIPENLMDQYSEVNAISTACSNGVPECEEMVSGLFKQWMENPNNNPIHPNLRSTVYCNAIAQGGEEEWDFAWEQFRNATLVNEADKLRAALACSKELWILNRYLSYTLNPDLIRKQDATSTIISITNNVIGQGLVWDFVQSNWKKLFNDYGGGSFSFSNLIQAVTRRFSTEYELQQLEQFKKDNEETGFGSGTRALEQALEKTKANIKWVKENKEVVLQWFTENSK
The experiment in a line: Aminopeptidase N enzyme assay (Ala-AMC substrate, fluorescence). Type of series: biochemical. The method, then:
Single concentration studies at 10 μM: Aminopeptidase N assays were performed as described previously. Aminopeptidase N was purchased from R&D Systems. Amino-4-methylcoumarin (Ala-AMC) was purchased from Bachem. Briefly, 0.1 μg/μL APN was incubated with 1 μL of 1 mM inhibitor in 50 mM Tris buffer, pH 7.5, in 100 μL volume in a black 384-well plate in duplicate. The reaction was started with the addition of Ala-AMC substrate at a final concentration of 100 μM. The cleavage accumulation AMC was measured by exciting at 380 nm and reading the fluorescence at 460 nm on a Molecular Devices SpectraMax i3 plate reader for 20 min at room temperature. Percent inhibition is calculated in GraphPad Prism software using slopes in the linear range for each inhibitor at 10 μM.
Dose-Response Studies for APN: Aminopeptidase N enzyme assays were performed as described previously.^26 Briefly, 0.1 μg/μL APN was incubated with 1 μL inhibitor in 50 mM Tris buffer, pH 7.5, in 50 μL volume in a black 384-well plate in duplicate. Compounds were tested at 3× dilutions from 100 μM final concentration. The reaction was started with the addition of Ala-AMC substrate at a final concentration of 100 μM. The accumulation of AMC was measured by exciting at 380 nm and reading the fluorescence at 460 nm on a Molecular Devices SpectraMax i3 plate reader for 30 min at room temperature. Steady state velocities were used to determine IC50 values by fitting the velocities vs. inhibitor concentration to the sigmoidal concentration-response curve (variable slope) using GraphPad Prism.

For orientation: ED50 means the midpoint of the dose-response relation. As a reminder, the IC50 is the midpoint of a concentration-inhibition curve. High values mean weaker potency, low ones greater potency. By inhibition is commonly meant the drop in the measured response relative to a control, in per cent. Take `CC(C)C[C@@H](C(=O)N[C@H](C(=O)OC1CCCC1)c1ccccc1)[C@H](O)C(=O)NO` [Tosedostat]: the “Dose Reduction Index (DRI) Tosedostat” value with mice [1] (15 min) was 2.52; in the series with mice [1] (30 min) it was 1.91; with mice [1] (45 min), 1.79; in the series on mice [1] (60 min) it was 2.21. The 50% effective dose (ED50) with mice [1] (0.25 h, read-out: Tosedostat ED50 (±SEM)) is 89 ± 109 mg/kg; with mice [1] (0.5 h, read-out: Tosedostat ED50 (±SEM)), 85.8 ± 132 mg/kg; in the series with mice [1] (0.75 h, read-out: Tosedostat ED50 (±SEM)), 71.5 ± 47.6 mg/kg; in the series with mice [1] (1 h, read-out: ED50, given alone) it was 58.1 to 82 mg/kg; in the series with mice [1] (1 h, read-out: Tosedostat ED50 (±SEM)) it was 97.3 ± 33.6 mg/kg. Further, the “presence in brain homogenate compared to plasma samples” value in series [2] was “minimal presence of tosedostat in the brain homogenate samples”. Moreover, the phase-I response result in the series on mice [3] (i.p.) is given as “dose-dependent response”. Besides, the “phase-II nociceptive action of formalin” value in the series with mice [3] (i.p., dosages as low as 1 mg/Kg) is listed as “completely suppressed”. Further, in the series on mice [3] (same assay), the “potency in comparison with APAP” value is “significantly advantageous in potency”. At Aminopeptidase N (APN), the “activity against APN (in words)” value is recorded as “micromolar activity against APN”. For the same compound, on Aminopeptidase N (APN) (dose response, 3x dilutions from 100 μM), the IC50 is 930 nM and 933 nM. On Aminopeptidase N (APN) (inhibitor 10 μM, read-out: APN @ 10 μM (percent inhibition)), the inhibition at 10 µM stood at 83%.
